Measured values: patent US20170143716A1, “METHOD OF TREATING PROLIFERATIVE DISORDERS AND OTHER PATHOLOGICAL CONDITIONS MEDIATED BY BCR-ABL, C-KIT, DDR1, DDR2 OR PDGF-R KINASE ACTIVITY” (Novartis AG, priority 2009, published 2017)

How the values were obtained:
[1] = human, in vivo, po, 400 mg
Description: The effect of food on the pharmacokinetic parameters of 400 mg oral dose of nilotinib in the formulation mentioned above was studied in human subjects. […] In view of these findings, it is recommended that nilotinib shall not be taken with a meal in order to minimize the effect of food on nilotinib bioavailability. A statement in this regard is, for instance, included in sections 4.2, 4.4 and 4.5 of the SPC (Summary of Product Characteristics) of the marketing authorization for Tasigna™ issued by the European Medicines Agency (EMEA).

[2] = PK study in healthy volunteers (4-way crossover, morning vs evening dosing); assay type: in vivo, human
Description: The increased exposure with QHS was confirmed in a study investigating nilotinib pharmacokinetics in healthy volunteers (HV) comparing cohorts receiving 600 mg morning dose or 600 mg morning dose QHS, respectively. In a single center, 4-way crossover study (n=16-24), HV group A was administered 300 mg nilotinib (in the form of nilotinib monohydrochloride monohydrate) in the morning, 2 hours after breakfast; HV group B was administered 300 mg nilotinib (in the form of nilotinib monohydrochloride monohydrate) in the evening, 2 hours after diner; HV group C was administered 600 mg nilotinib (in the form of nilotinib monohydrochloride monohydrate) in the evening, 2 hours after diner; and HV group D was administered 600 mg nilotinib (in the form of nilotinib monohydrochloride monohydrate) in the evening, 4 hours after diner.
The nilotinib PK was compared when administered in the evening versus administration in the morning (B vs. A) and the potential residual food effect on nilotinib absorption was assessed (D vs. C).

[3] = Study in CML patients obtaining 400 mg nilotinib twice daily (trough concentrations C0, C12); assay type: in vivo, human; conditions: 21 CML patients, 400 mg twice daily
Description: 21 Patients were treated with 400 mg nilotinib twice daily. Blood samples were collected prior to morning dose (C0) and prior to evening dose (C12). […] With other words, the trough concentration of nilotinib in the morning was 60 to 80% higher than that observed in the evening.

[4] = 300 mg evening vs 300 mg morning
[5] = 600 mg evening 4 hours after diner vs 2 hours after diner
[6] = group A: 300 mg in the morning, 2 hours after breakfast, N = 20
[7] = group B: 300 mg in the evening, 2 hours after diner, N = 18
[8] = group C: 600 mg in the evening, 2 hours after diner, N = 22
[9] = group D: 600 mg in the evening, 4 hours after diner, N = 22

## Cc1cn(-c2cc(NC(=O)c3ccc(C)c(Nc4nccc(-c5cccnc5)n4)c3)cc(C(F)(F)F)c2)cn1 [nilotinib, 4-methyl-3-[[4-(3-pyridinyl)-2-pyrimidinyl]amino]-N-[5-(4-methyl-1H-imidazol-1-yl)-3-(trifluoromethyl)phenyl] benzamide]
[1]
  increase in total exposure (AUC0-t) with food: 29%
  total exposure (AUC0-t) increase with food: 82%
[2]; [4]
  AUC0-12, Geometric Mean Ratio (90% Cls) B vs A: 1.21
  AUC0-24, Geometric Mean Ratio (90% Cls) B vs A: 1.21
  AUC0-inf, Geometric Mean Ratio (90% Cls) B vs A: 1.09
  AUC0-tlast, Geometric Mean Ratio (90% Cls) B vs A: 1.14
  Cmax, Geometric Mean Ratio (90% Cls) B vs A: 1.14
  tmax, Geometric Mean Ratio (90% Cls) B vs A: 0.49
[2]; [5]
  AUC0-12, Geometric Mean Ratio (90% Cls) D vs C: 0.93
  AUC0-24, Geometric Mean Ratio (90% Cls) D vs C: 0.93
  AUC0-inf, Geometric Mean Ratio (90% Cls) D vs C: 0.94
  AUC0-tlast, Geometric Mean Ratio (90% Cls) D vs C: 0.94
  Cmax, Geometric Mean Ratio (90% Cls) D vs C: 0.92
  tmax, Geometric Mean Ratio (90% Cls) D vs C: −0.49
[2]; [6]
  AUC0-12: 4577 ng·h/mL
  AUC0-24: 7781 ng·h/mL
  AUC0-inf: 14920 ng·h/mL
  AUC0-tlast: 13650 ng·h/mL
  Cmax: 577 ng/mL
  t1/2: 20.3 h
  tmax: 4.0 h
[2]; [7]
  AUC0-12: 5537 ng·h/mL
  AUC0-24: 9435 ng·h/mL
  AUC0-inf: 16272 ng·h/mL
  AUC0-tlast: 15556 ng·h/mL
  Cmax: 655 ng/mL
  t1/2: 14.5 h
  tmax: 4.0 h
[2]; [8]
  AUC0-12: 7124 ng·h/mL
  AUC0-24: 11857 ng·h/mL
  AUC0-inf: 23216 ng·h/mL
  AUC0-tlast: 20819 ng·h/mL
  Cmax: 854 ng/mL
  t1/2: 20.5 h
  tmax: 4.0 h
[2]; [9]
  AUC0-12: 6650 ng·h/mL
  AUC0-24: 111064 ng·h/mL
  AUC0-inf: 21937 ng·h/mL
  AUC0-tlast: 19591 ng·h/mL
  Cmax: 782 ng/mL
  t1/2: 19.9 h
  tmax: 4.0 h
[2]; healthy volunteers, evening vs morning dose
  exposure higher following the evening dose than the morning dose: up to 20%
[3]
  ratio C0/C12 (concentration prior to morning dose / prior to evening dose): 1.7
